Experimental data as given in ChEMBL document CHEMBL5375999, “Discovery of a Dual Tubulin and Neuropilin-1 (NRP1) Inhibitor with Potent In Vivo Anti-Tumor Activity via Pharmacophore-based Docking Screening, Structure Optimization, and Biological Evaluation” (J Med Chem, 2023).
The source made the active and inactive calls. The calls are words filed in the database; no cut-off is given here.

Tests used:
CWR22R = experiment: Cytotoxicity against human 22Rv1 cells assessed as inhibition of cell viability incubated for 48 hrs by MTT assay; format: functional, cell-based
PC-3 [1] = experiment: Induction of apoptosis in human PC-3 cells assessed as necrotic cells at 0.5 uM by Annexin-V FITC staining based flow cytometry analysis (reference value: 0.059%); format: functional
[2] = molecular target: Cyclin-dependent kinase 5 (Homo sapiens, UniProt Q00535); experiment: Inhibition of CDK5 (unknown origin)
Sequence of Cyclin-dependent kinase 5 (Q00535 whole entry): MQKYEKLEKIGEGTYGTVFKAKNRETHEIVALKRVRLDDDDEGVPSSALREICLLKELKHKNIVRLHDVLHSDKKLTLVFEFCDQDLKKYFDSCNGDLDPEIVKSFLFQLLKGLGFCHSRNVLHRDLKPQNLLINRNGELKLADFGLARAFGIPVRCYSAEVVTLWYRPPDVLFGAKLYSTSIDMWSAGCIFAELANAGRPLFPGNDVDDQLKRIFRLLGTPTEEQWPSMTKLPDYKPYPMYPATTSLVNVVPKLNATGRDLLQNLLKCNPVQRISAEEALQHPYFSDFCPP

[3] = molecular target: AP2-associated protein kinase 1 (Homo sapiens, UniProt Q2M2I8); experiment: Inhibition of AAK1 (unknown origin)
[4] = molecular target: Dual specificity protein kinase TTK (Homo sapiens, UniProt P33981); experiment: Inhibition of TTK (unknown origin)
PC-3 [5] = experiment: Induction of apoptosis in human PC-3 cells assessed as late apoptotic cells at 0.5 uM by Annexin-V FITC staining based flow cytometry analysis (reference value: 1.67%); format: functional
PC-3 [6] = experiment: Antitumor activity against human PC-3 cells xenografted in BALB/c nude mouse assessed as reduction in tumor volume at 5 to 10 mg/kg, ip administered every 4 days for 20 days; format: functional, organism-based; settings: dose 5-10 mg/kg, time 20.0 day
[7] = molecular target: Tyrosine-protein kinase Lck (Homo sapiens, UniProt P06239); experiment: Inhibition of LCK (unknown origin)
Activin receptor type-1 = Activin receptor type-1 (Homo sapiens, UniProt Q04771); experiment: Inhibition of ACVR1 (unknown origin)
PC-3 [8] = experiment: Induction of cell cycle arrest in human PC-3 cells assessed as S phase cells at 0.1 uM by flow cytometry analysis (reference value: 2%); format: functional
PC-3 [9] = experiment: Induction of apoptosis in human PC-3 cells assessed as necrotic cells at 2.5 uM by Annexin-V FITC staining based flow cytometry analysis (reference value: 0.059%); format: functional
PC-3 [10] = experiment: Induction of cell cycle arrest in human PC-3 cells assessed as S phase cells at 12.5 uM by flow cytometry analysis (reference value: 2%); format: functional
Tubulin (Homo sapiens) [11] = molecular target: T1, Tubulin (Homo sapiens) (UniProt P68371+Q9H4B7+P0DPH7+P68366+Q13509+Q71U36+P04350+Q3ZCM7+P07437+P68363+Q9BQE3+Q6PEY2+Q13885+Q9BVA1+Q9BUF5); experiment: Inhibition of tubulin polymerization in human PC-3 cells assessed as microtubule destruction at 2.5 to 12.5 uM incubated for 48 hrs by immunofluorescence assay; format: cell-based; settings: dose 2.5-12.5 µM
Tubulin (Homo sapiens) [12] = molecular target: T1, Tubulin (Homo sapiens); experiment: Inhibition of tubulin polymerization (unknown origin) at 12 uM by spectrophotometric analysis relative to control; format: protein-complex assay
[13] = molecular target: RAC-gamma serine/threonine-protein kinase (Homo sapiens, UniProt Q9Y243); experiment: Inhibition of AKT3 (unknown origin)
[14] = Toxicity in BALB/c mouse xenografted with human PC-3 cells assessed as change in liver morphology at 5 to 10 mg/kg, ip administered every 4 days for 20 days by H and E staining based inverted microscopic assay; format: organism-based; settings: in vivo, 480 h, dose 5-10 mg/kg, time 20 day
[15] = molecular target: Epidermal growth factor receptor (Homo sapiens, UniProt P00533); experiment: Inhibition of EGFR (unknown origin)
[16] = molecular target: Atypical kinase COQ8A, mitochondrial (Homo sapiens, UniProt Q8NI60); experiment: Inhibition of ADCK3 (unknown origin)
Sequence of Atypical kinase COQ8A, mitochondrial (Q8NI60 whole entry): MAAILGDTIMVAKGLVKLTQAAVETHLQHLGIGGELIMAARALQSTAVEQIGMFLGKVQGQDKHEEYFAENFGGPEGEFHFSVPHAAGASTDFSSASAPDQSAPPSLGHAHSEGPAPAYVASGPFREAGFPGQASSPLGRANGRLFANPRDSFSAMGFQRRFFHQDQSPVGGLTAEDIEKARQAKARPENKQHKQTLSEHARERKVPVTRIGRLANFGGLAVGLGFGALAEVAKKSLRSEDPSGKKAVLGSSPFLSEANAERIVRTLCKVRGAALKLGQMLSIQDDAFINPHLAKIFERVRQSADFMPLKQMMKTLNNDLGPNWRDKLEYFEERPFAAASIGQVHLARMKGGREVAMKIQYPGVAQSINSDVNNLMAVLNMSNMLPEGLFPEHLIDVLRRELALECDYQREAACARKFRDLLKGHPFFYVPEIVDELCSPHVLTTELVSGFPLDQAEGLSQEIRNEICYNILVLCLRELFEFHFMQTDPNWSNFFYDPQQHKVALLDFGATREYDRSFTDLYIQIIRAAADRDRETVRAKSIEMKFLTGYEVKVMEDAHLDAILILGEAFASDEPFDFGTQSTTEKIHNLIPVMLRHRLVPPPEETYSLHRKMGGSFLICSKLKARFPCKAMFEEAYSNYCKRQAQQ

[17] = Toxicity in BALB/c mouse xenografted with human PC-3 cells assessed as change in spleen morphology at 5 to 10 mg/kg, ip administered every 4 days for 20 days by H and E staining based inverted microscopic assay; format: organism-based; settings: in vivo, 480 h, dose 5-10 mg/kg, time 20 day
[18] = molecular target: Serine/threonine-protein kinase 4 (Homo sapiens, UniProt Q13043); experiment: Inhibition of MST1 (unknown origin)
Sequence of Serine/threonine-protein kinase 4 (Q13043 whole entry): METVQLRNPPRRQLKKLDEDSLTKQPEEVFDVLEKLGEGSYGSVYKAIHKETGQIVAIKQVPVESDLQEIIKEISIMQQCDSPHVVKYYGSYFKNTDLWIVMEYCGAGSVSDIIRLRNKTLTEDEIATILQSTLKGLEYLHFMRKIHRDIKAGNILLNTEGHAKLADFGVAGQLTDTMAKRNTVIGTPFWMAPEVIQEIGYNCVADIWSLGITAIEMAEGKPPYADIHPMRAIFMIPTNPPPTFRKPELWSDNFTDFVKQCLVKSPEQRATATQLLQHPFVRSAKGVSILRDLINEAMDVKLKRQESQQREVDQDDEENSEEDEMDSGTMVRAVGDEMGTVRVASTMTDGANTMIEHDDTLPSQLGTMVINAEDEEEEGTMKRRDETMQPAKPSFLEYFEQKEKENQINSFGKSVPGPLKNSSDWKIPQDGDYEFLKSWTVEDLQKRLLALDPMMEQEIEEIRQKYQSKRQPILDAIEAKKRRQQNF

PC-3 [19] = experiment: Induction of cell cycle arrest in human PC-3 cells assessed as S phase cells at 2.5 uM by flow cytometry analysis (reference value: 2%); format: functional
PC-3 [20] = experiment: Cytotoxicity against human PC-3 cells assessed as inhibition of cell viability incubated for 48 hrs by MTT assay; format: functional, cell-based; settings: PC-3, 48 h
PC-3 [21] = experiment: Antiangiogenesis activity in human PC-3 cells assessed as reduction in network formation by interconnected cells at 0.1 to 12.5 uM incubated for 8 to 15 hrs by matrigel based inverted microscopic analysis; format: functional, cell-based; settings: dose 0.1-12.5 µM, time 8-15 hrs
PC-3 [22] = experiment: Induction of apoptosis in human PC-3 cells assessed as late apoptotic cells at 0.1 uM by Annexin-V FITC staining based flow cytometry analysis (reference value: 1.67%); format: functional
PC-3 [23] = experiment: Induction of cell cycle arrest in human PC-3 cells assessed as accumulation of cells at G2/M phase at 12.5 uM by flow cytometry analysis (reference value: 3.24%); format: functional
[24] = Half life in Sprague-Dawley rat at 1.5 mg/kg, po measured upto 24 hrs by LC-MS/MS analysis; format: ADME, organism-based; settings: in vivo
[25] = molecular target: STE20-like serine/threonine-protein kinase (Homo sapiens, UniProt Q9H2G2); experiment: Inhibition of SLK (unknown origin)
[26] = Cmax in Sprague-Dawley rat at 1.5 mg/kg, po measured upto 24 hrs by LC-MS/MS analysis; format: ADME, organism-based; parameters: time < 24 hrs, dose 1.5 mg/kg, route po; settings: in vivo
[27] = molecular target: Cyclin-G-associated kinase (Homo sapiens, UniProt O14976); experiment: Inhibition of GAK (unknown origin)
Sequence of Cyclin-G-associated kinase (O14976 whole entry): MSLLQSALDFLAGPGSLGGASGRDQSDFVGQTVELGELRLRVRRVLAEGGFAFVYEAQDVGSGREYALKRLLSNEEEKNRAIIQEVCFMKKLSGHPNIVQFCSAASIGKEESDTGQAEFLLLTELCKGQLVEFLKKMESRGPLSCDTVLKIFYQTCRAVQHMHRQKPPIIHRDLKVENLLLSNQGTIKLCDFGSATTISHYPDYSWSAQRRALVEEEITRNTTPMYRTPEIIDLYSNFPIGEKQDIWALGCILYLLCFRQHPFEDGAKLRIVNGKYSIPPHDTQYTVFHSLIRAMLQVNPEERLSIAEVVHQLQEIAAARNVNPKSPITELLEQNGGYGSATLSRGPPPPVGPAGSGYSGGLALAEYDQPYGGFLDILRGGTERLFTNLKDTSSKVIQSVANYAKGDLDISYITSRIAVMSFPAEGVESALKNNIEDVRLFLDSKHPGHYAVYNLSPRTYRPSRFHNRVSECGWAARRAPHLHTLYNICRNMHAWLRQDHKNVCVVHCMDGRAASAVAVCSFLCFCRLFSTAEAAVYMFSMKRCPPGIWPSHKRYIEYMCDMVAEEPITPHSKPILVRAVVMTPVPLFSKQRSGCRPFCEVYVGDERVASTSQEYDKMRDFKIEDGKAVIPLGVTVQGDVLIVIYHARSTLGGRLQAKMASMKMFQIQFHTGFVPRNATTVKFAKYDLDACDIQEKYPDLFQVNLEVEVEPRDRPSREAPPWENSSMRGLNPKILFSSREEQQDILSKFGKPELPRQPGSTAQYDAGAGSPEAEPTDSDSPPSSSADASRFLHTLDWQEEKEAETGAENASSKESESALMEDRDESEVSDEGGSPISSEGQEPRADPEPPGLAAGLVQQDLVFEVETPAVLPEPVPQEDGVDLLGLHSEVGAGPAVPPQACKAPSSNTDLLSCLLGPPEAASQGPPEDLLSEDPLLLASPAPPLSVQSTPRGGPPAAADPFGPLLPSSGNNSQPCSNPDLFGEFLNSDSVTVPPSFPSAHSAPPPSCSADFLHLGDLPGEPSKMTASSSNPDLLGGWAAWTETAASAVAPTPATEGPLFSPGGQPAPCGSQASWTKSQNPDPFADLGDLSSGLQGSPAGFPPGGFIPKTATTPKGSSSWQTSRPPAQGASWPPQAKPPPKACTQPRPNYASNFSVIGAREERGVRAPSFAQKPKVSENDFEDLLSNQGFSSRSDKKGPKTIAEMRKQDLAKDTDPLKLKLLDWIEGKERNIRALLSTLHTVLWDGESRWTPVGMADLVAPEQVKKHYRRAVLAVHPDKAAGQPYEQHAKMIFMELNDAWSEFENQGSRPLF

[28] = molecular target: Serine/threonine-protein kinase B-raf (Homo sapiens, UniProt P15056); experiment: Inhibition of BRAF (unknown origin)
[29] = molecular target: ALK tyrosine kinase receptor (Homo sapiens, UniProt Q9UM73); experiment: Inhibition of ALK (unknown origin)
Sequence of ALK tyrosine kinase receptor (Q9UM73 whole entry): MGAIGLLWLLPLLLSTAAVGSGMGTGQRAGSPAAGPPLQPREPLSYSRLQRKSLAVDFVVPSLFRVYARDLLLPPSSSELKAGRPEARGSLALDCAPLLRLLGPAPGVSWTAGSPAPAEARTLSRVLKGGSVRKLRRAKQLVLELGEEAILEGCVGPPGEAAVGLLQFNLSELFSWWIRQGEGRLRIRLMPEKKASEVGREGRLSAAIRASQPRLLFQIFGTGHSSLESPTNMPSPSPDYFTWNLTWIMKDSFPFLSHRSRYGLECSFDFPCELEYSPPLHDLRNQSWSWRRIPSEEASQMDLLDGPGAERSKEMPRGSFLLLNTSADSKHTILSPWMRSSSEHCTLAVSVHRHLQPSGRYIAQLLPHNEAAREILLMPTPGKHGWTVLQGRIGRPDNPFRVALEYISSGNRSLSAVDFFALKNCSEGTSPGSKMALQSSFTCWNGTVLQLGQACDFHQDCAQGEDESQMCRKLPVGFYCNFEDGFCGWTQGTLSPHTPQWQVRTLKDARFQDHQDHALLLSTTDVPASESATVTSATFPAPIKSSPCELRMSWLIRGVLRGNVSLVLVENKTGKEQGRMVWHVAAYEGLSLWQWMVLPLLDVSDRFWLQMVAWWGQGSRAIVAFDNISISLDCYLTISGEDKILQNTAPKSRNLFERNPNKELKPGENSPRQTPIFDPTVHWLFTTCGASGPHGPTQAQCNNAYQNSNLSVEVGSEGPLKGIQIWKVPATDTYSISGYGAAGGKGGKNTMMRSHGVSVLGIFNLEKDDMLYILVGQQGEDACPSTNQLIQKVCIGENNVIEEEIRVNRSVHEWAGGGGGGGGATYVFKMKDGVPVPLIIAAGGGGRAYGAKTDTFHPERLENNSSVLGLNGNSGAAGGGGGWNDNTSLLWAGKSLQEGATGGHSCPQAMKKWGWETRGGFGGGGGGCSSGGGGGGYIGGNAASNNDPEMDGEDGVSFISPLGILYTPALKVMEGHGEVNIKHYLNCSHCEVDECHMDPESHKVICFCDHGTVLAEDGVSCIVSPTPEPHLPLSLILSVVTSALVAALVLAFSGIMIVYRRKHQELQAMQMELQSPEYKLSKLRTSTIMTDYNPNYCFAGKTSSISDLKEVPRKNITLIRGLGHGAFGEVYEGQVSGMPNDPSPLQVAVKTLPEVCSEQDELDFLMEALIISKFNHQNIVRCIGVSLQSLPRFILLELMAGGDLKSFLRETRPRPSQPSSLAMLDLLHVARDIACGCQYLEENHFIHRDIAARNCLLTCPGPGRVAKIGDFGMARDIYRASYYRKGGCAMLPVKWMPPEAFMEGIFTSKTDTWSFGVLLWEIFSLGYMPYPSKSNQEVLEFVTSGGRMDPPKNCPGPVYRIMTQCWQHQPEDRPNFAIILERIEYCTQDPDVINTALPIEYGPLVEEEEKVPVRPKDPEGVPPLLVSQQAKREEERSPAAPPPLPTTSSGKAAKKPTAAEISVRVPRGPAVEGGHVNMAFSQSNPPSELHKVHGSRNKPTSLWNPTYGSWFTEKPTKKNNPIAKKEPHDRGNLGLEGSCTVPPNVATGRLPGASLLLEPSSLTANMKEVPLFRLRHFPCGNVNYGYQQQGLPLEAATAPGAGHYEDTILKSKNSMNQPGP

[30] = molecular target: Vascular endothelial growth factor A, long form (Homo sapiens, UniProt P15692); experiment: Inhibition of VEGF (unknown origin)
Sequence of Vascular endothelial growth factor A, long form (P15692 whole entry): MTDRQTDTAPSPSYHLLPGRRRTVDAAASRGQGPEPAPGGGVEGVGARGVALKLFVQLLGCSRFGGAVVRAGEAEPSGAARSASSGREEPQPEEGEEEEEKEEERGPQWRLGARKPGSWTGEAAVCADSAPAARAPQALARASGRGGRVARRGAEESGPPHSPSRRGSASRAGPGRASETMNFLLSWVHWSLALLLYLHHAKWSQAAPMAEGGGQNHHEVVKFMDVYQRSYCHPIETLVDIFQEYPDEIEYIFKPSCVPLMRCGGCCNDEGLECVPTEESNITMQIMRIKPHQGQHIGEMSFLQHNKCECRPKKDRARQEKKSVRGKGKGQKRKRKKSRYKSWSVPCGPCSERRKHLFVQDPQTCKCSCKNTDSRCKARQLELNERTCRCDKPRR

[31] = molecular target: Cyclin-dependent kinase 4 (Homo sapiens, UniProt P11802); experiment: Inhibition of CDK4 (unknown origin)
Sequence of Cyclin-dependent kinase 4 (P11802 whole entry): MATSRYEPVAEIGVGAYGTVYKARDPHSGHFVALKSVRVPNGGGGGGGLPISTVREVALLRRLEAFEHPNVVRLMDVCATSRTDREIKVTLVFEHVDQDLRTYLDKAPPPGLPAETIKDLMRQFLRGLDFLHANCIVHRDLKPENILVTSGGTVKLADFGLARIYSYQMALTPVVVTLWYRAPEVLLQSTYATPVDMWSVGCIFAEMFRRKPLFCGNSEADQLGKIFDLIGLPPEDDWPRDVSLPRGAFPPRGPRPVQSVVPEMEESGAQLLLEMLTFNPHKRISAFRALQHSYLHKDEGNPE

PC-3 [32] = experiment: Induction of apoptosis in human PC-3 cells assessed as late apoptotic cells at 12.5 uM by Annexin-V FITC staining based flow cytometry analysis (reference value: 1.67%); format: functional
[33] = Toxicity in BALB/c mouse xenografted with human PC-3 cells assessed as change in kidney morphology at 5 to 10 mg/kg, ip administered every 4 days for 20 days by H and E staining based inverted microscopic assay; format: organism-based; settings: in vivo, 480 h, dose 5-10 mg/kg, time 20 day
PC-3 [34] = experiment: Induction of cell cycle arrest in human PC-3 cells assessed as G0/G1 phase cells at 12.5 uM by flow cytometry analysis (reference value: 94.76%); format: functional
[35] = molecular target: Serine/threonine-protein kinase MAK (Homo sapiens, UniProt P20794); experiment: Inhibition of MAK (unknown origin)
PC-3 [36] = experiment: Induction of cell cycle arrest in human PC-3 cells assessed as accumulation of cells at G2/M phase at 0.1 uM by flow cytometry analysis (reference value: 3.24%); format: functional

Q: Which results are given for `COc1ccc(/C=C\c2cc(OC)c(OC)c(OC)c2)cc1NC(=O)CCC(=O)N[C@@H](CCCNC(=N)N)C(=O)O`?
A: Activity (CWR22R): Active; Activity (PC-3 [1]): 0.12%; IC50 [2]: > 10 µM; IC50 [3]: > 10 µM; IC50 [4]: > 10 µM; Activity (PC-3 [5]): 5.32%; Activity (PC-3 [6]): Active; IC50 [7]: > 10 µM; IC50 (Activin receptor type-1): > 10 µM; Activity (PC-3 [8]): 1.95%; Activity (PC-3 [9]): 0.16%; Activity (PC-3 [10]): 34.85%; inhibition (Tubulin (Homo sapiens) [11]): Active; inhibition (Tubulin (Homo sapiens) [12]): 96%; IC50 [13]: > 10 µM; Activity [14]: Non-Toxic; IC50 [15]: > 10 µM; IC50 [16]: > 10 µM; Activity [17]: Non-Toxic; IC50 [18]: > 10 µM; Activity (PC-3 [19]): 3.67%; IC50 (PC-3 [20]): 0.02 µM; Activity (PC-3 [21]): Active; Activity (PC-3 [22]): 4.49%; Activity (PC-3 [23]): 14.02%; half-life [24]: 13.8 h; IC50 [25]: > 10 µM; Cmax [26]: 1330 ng/mL; IC50 [27]: > 10 µM; IC50 [28]: > 10 µM; IC50 [29]: > 10 µM; IC50 [30]: > 10 µM; IC50 [31]: > 10 µM; Activity (PC-3 [32]): 6.04%; Activity [33]: Non-Toxic; Activity (PC-3 [34]): 51.13%; IC50 [35]: > 10 µM; Activity (PC-3 [36]): 4.48%
